Reference: US20240366589A1, “NHE3-BINDING COMPOUNDS AND METHODS FOR INHIBITING PHOSPHATE TRANSPORT” (Ardelyx, Inc., priority 2013, published 2024)

Tests used:
Rat NHE3 = target: T1, Rat NHE3 (Rattus norvegicus, UniProt P26433); test: Cell-based NHE3 activity under prompt conditions (OK cells, BCECF pH recovery), rat NHE3; settings: prompt conditions
T1 construct: expressed in transfected cells; host or cells: Opossum kidney (OK) cells (ATCC), electroporation
Protocol: (§1) Cell-based activity under Prompt Conditions. Rat or human NHE3-mediated Na^+-dependent H antiport was measured using a modification of the pH sensitive dye method originally reported by Paradiso (PNAS USA. 81:7436-7440, 1984). Opossum kidney (OK) cells were obtained from the ATCC and propagated per their instructions. The rat NHE3 gene (GenBank M85300) or the human NHE3 gene (GenBank NM_004174.1) was introduced into OK cells via electroporation, and cells were seeded into 96 well plates and grown overnight. Medium was aspirated from the wells, cells were washed twice with NaCl-HEPES buffer (100 mM NaCl, 50 mM HEPES, 10 mM glucose, 5 mM KCl, 2 mM CaCl2, 1 mM MgCl2, pH 7.4), then incubated for 30 min at room temperature with NH4Cl-HEPES buffer (20 mM NH4Cl, 80 mM NaCl, 50 mM HEPES, 5 mM KCl, 2 mM CaCl2, 1 mM MgCl2, pH 7.4) containing 5 μM bis(acetoxymethyl) 3,3′-(3′,6′-bis(acetoxymethoxy)-5-((acetoxymethoxy)carbonyl)-3-oxo-3H-spiro[isobenzofuran-1,9′-xanthene]-2′,7′-diyl)dipropanoate (BCECF-AM).
(§2) Cells were washed twice with Ammonium free, Na^+-free HEPES (100 mM choline, 50 mM HEPES, 10 mM glucose, 5 mM KCl, 2 mM CaCl2, 1 mM MgCl2, pH 7.4) and incubated in the same buffer for 10 minutes at room temperature to lower intracellular pH. […] Initial rates were plotted as the average 2 or more replicates, and pIC50 values were estimated using GraphPad Prism.
(§3) Cell-based activity of NHE3 Activity under ‘Prompt’ Conditions. This assay was performed as described in Example 1 (supra).

Human NHE3 = target: T2, Human NHE3 (Homo sapiens, UniProt P48764); test: Cell-based NHE3 activity under prompt conditions (OK cells, BCECF pH recovery), human NHE3; settings: prompt conditions
T2 construct: expressed in transfected cells; host or cells: Opossum kidney (OK) cells (ATCC), electroporation
T2 sequence (P48764 26-834): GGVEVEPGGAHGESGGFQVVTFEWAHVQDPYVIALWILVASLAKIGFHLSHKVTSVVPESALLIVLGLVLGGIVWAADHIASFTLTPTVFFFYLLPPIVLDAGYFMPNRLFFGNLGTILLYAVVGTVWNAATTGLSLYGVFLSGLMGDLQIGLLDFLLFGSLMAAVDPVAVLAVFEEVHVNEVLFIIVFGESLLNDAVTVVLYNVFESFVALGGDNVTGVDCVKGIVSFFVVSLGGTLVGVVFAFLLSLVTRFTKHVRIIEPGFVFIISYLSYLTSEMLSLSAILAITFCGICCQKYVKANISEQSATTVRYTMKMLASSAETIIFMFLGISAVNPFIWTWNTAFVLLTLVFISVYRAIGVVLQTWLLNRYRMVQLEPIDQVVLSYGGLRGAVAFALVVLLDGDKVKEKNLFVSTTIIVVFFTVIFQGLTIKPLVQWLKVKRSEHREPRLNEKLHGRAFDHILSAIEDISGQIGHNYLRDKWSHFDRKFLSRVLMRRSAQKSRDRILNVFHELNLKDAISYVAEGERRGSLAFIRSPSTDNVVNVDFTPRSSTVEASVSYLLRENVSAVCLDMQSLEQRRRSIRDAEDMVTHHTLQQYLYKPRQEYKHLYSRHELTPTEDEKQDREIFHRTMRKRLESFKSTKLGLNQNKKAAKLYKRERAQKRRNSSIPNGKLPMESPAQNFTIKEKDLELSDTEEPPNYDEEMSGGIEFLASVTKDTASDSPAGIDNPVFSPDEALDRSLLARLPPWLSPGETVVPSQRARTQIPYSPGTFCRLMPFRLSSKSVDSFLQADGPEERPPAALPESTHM
Protocol: as §1, §2, §3

[1] = system: absorption of sodium from the intestinal lumen; test: Inhibition of intestinal sodium absorption: urinary sodium (uNa) 16 h after single oral dose in rats; assay type: in vivo, rat; settings: oral gavage, 16 h post-dose
Protocol: (§4) Inhibition of intestinal sodium and phosphate absorption. Urinary sodium concentration and fecal form were measured to assess the ability of selected example compounds to inhibit the absorption of sodium from the intestinal lumen. Eight-week old Sprague-Dawley rats were purchased from Charles River Laboratories (Hollister, CA), were housed 2 per cage, and acclimated for at least 3 days before study initiation. Animals were fed Harlan Teklad Global 2018 rodent chow (Indianapolis, IN) and water ad libitum throughout the study and maintained in a standard light/dark cycle of 6 AM to 6 PM. On the day of the study, between 4 PM and 5 PM, a group of rats (n=6) were dosed via oral gavage with test compound, or a pharmaceutically acceptable salt thereof, or vehicle (water) at a volume of 10 mL/kg.
(§5) After dose administration animals were placed in individual metabolic cages where they were also fed the same chow in meal form and watered ad libitum. At 16 h post-dose, the urine samples were collected and fecal form was assessed by two independent observations. Fecal forms were scored according to a common scale associated with increasing fecal water to the wettest observation in the cage's collection funnel (1, normal pellet; 2, pellet adhering to sides of collection funnel due to moisture; 3, loss of normal pellet shape; 4, complete loss of shape with a blotting pattern; 5, liquid fecal streams evident). A rat's fecal form score (FFS) was determined by averaging both observational scores for all rats within a group (n=6). The vehicle group average was 1.
For urine samples, the volumes were determined gravimetrically and centrifuged at 3,600×g. The supernatants were diluted 100-fold in deionized Milli-Q water then filtered through a 0.2 μm GHP Pall AcroPrep filter plate (Pall Life Sciences, Ann Arbor, MI) prior to analysis by ion chromatography. Ten microliters of each filtered extract was injected onto a Dionex ICS-3000 ion chromatograph system (Dionex, Sunnyvale, CA). Cations were separated by an isocratic method using 25 mM methanesulfonic acid as the eluent on an IonPac CS12A 2 mm i.d.×250 mm, 8 μm particle size cation exchange column (Dionex). Sodium was quantified using standards prepared from a cation standard mix containing Li^+, Na^+, NH4^+, K^+, Mg^2+, and Ca^2+ (Dionex). The mean mass of sodium urinated for every group in the 16 h period was determined with the vehicle group usually urinating approximately 21 mg sodium. The urine Na (uNa) for rats in the test groups were expressed as a percentage of the vehicle mean and the means were compared to that of the vehicle group by utilizing a one-way analysis of variance coupled with a Dunnett's post hoc test.
Further experiments were performed to test the compounds under the persistent and prompt conditions described above, and to test their effects on urinary excretion of sodium in rats. The latter was performed by orally dosing the compounds in rats (single dose) and measuring urinary Na excretion (as a % of vehicle). The results are indicated as percentage of urinary sodium (UNa %); low values indicate relatively active compounds.

[2] = system: absorption of sodium from the intestinal lumen; test: Fecal form score (FFS) 16 h after oral dose in rats; assay type: in vivo, rat; settings: oral gavage, 16 h post-dose, scale 1-5
Protocol: as §4, §5

[3] = system: phosphorus and calcium levels in the urine of rats; test: Urinary excretion of phosphate and calcium in rats (16 h overnight urine); assay type: in vivo, rat; settings: rats, oral gavage, 16 h post-dose

T1 sequence (P26433 29-831): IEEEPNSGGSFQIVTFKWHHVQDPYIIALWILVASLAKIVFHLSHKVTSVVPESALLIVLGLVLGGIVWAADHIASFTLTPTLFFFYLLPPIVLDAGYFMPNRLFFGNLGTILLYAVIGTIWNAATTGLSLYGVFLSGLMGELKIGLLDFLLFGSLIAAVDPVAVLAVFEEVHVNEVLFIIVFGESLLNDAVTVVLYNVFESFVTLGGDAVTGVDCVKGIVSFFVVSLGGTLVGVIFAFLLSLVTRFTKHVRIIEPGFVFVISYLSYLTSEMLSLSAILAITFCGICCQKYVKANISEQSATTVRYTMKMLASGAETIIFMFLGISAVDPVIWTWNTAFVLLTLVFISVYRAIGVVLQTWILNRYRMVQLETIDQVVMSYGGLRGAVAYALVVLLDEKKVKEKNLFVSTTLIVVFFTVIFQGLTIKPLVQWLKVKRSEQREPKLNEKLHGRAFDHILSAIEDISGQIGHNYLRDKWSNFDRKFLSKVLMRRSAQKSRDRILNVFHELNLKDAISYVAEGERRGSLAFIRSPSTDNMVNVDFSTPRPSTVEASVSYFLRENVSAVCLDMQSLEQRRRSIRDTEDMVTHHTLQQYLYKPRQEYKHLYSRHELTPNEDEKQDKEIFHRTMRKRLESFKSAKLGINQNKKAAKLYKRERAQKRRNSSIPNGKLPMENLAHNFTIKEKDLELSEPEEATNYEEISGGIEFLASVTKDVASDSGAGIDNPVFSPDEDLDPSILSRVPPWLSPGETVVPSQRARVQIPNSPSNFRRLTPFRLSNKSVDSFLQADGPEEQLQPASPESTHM

Structure (SMILES)	Prompt Rat NHE3 pIC50 (Rat NHE3)	Prompt Human NHE3 pIC50 (Human NHE3)	Urine Na % of control ([1]; dose 10 mg/kg) [%]	Fecal Form Score average ([2]; dose 10 mg/kg)	Urine P % of control ([3]; dose 10 mg/kg) [%]	Urine Na % of control ([1]; dose 1 mg/kg) [%]	Urine Na % of control ([1]; dose 3 mg/kg) [%]	Fecal Form Score average ([2]; dose 1 mg/kg)	Fecal Form Score average ([2]; dose 3 mg/kg)	Urine P % of control ([3]; dose 1 mg/kg) [%]	Urine P % of control ([3]; dose 3 mg/kg) [%]
C/C(=C\c1cc(F)c(Oc2ccc(S(=O)(=O)NCCOCCOCCOCCNC(=O)COCC(=O)NCCOCCOCCOCCNS(=O)(=O)c3ccc(Oc4c(F)cc(/C=C(\C)C(=O)N=C(N)N)cc4F)cc3)cc2)c(F)c1)C(=O)N=C(N)N [compound 15]	7.30	7.90	77	1	65						
CN(C)[C@H]1Cc2c(Cl)cc(Cl)cc2[C@@H]1Oc1ccc(S(=O)(=O)NCCOCCOCCNC(=O)Nc2ccc(NC(=O)NCCOCCOCCNS(=O)(=O)c3ccc(O[C@H]4c5cc(Cl)cc(Cl)c5C[C@@H]4N(C)C)cc3)cc2)cc1 [compound 152]	<5.00	8.70	26	1	74						
CN1Cc2c(Cl)cc(Cl)cc2[C@H](c2cccc(S(=O)(=O)NCCOCCOCCOCCNC(=O)CC(O)(CC(=O)NCCOCCOCCOCCNS(=O)(=O)c3cccc([C@@H]4CN(C)Cc5c(Cl)cc(Cl)cc54)c3)C(=O)NCCOCCOCCOCCNS(=O)(=O)c3cccc([C@@H]4CN(C)Cc5c(Cl)cc(Cl)cc54)c3)c2)C1 [compound 61]	7.00	7.80	21	3	67	93	50	1	1	96	70
N=C(N)Nc1nc(-c2cccc(N3CCN(CCOCCOCCOCCNC(=O)NCCOCCOCCNC(=O)CN(CCN(CC(=O)O)CC(=O)NCCOCCOCCNC(=O)NCCOCCOCCOCCN4CCN(c5cccc(-c6nc(NC(=N)N)nc7ccc(Cl)cc67)c5)CC4)CC(=O)O)CC3)c2)c2cc(Cl)ccc2n1 [compound 41]	7.90	8.20	104	1	133						
N=C(N)Nc1nc(-c2cccc(OCCOCCOCCOCCNC(=O)NCCOCCOCCNC(=O)CN(CCN(CC(=O)O)CC(=O)NCCOCCOCCNC(=O)NCCOCCOCCOCCOc3cccc(-c4nc(NC(=N)N)nc5ccc(Cl)cc45)c3)CC(=O)O)c2)c2cc(Cl)ccc2n1 [compound 44]	7.70	7.90	88	1	102						

The next lines start with results.

Prompt Rat NHE3 pIC50 (Rat NHE3)	Prompt Human NHE3 pIC50 (Human NHE3)	Structure (SMILES)	Urine Na % of control ([1]; dose 10 mg/kg) [%]	Fecal Form Score average ([2]; dose 10 mg/kg)	Urine P % of control ([3]; dose 10 mg/kg) [%]	Urine Na % of control ([1]; dose 1 mg/kg) [%]	Urine Na % of control ([1]; dose 3 mg/kg) [%]	Fecal Form Score average ([2]; dose 1 mg/kg)	Fecal Form Score average ([2]; dose 3 mg/kg)	Urine P % of control ([3]; dose 1 mg/kg) [%]	Urine P % of control ([3]; dose 3 mg/kg) [%]
8.00	8.70	CN1Cc2c(Cl)cc(Cl)cc2[C@H](c2cccc(S(=O)(=O)NCCOCCOCCOCCNC(=O)CN(CCN(CC(=O)O)CC(=O)NCCOCCOCCOCCNS(=O)(=O)c3cccc([C@@H]4CN(C)Cc5c(Cl)cc(Cl)cc54)c3)CC(=O)O)c2)C1 [compound 67]	4	2	67						
7.45	7.40	O=C(CCOCCOCCOCCOCCOCCC(=O)NCCOCCOCCOCCNS(=O)(=O)c1ccc(OC2c3ccccc3CC2N2CCCCC2)cc1)NCCOCCOCCOCCNS(=O)(=O)c1ccc(OC2c3ccccc3CC2N2CCCCC2)cc1 (centres unmarked) [compound 53]	100	1	59						
7.10	7.90	CCC(=O)NC(CCC(=O)NCCOCCOCCOCCNS(=O)(=O)c1cccc([C@@H]2CN(C)Cc3c(Cl)cc(Cl)cc32)c1)(CCC(=O)NCCOCCOCCOCCNS(=O)(=O)c1cccc([C@@H]2CN(C)Cc3c(Cl)cc(Cl)cc32)c1)CCC(=O)NCCOCCOCCOCCNS(=O)(=O)c1cccc([C@@H]2CN(C)Cc3c(Cl)cc(Cl)cc32)c1 [compound 89]	49	3	117						
8.30	7.50	CN(C)[C@H]1Cc2c(Cl)cc(Cl)cc2[C@@H]1Oc1ccc(S(=O)(=O)NCCOCCOCCNC(=O)C(C)(C)C(=O)NCCOCCOCCNS(=O)(=O)c2ccc(O[C@H]3c4cc(Cl)cc(Cl)c4C[C@@H]3N(C)C)cc2)cc1 [compound 151]	42	2	121		78		1		52
7.50	8.20	O=C(NCCOCCOCCOCCNS(=O)(=O)c1ccc(O[C@H]2c3ccccc3C[C@@H]2N2CCCCC2)cc1)c1ccc(C(=O)NCCOCCOCCOCCNS(=O)(=O)c2ccc(O[C@H]3c4ccccc4C[C@@H]3N3CCCCC3)cc2)cc1 [compound 117]	77	1	98						
